Experimental findings from ChEMBL document CHEMBL1155951 (Bioorg Med Chem Lett, 2008) are described below.

The subject of data set [1] is Plasmodium falciparum. Nature of the data set: Antiplasmodial activity against chloroquine-resistant Plasmodium falciparum W2 gametocytes after 48 hrs by microscopy. The class given is functional, organism-based. The settings on record: W2, 48 h.
A short description of data set [2]: Selectivity index, ratio of IC50 for african green monkey (Cercopithecus aethiops) Vero cells to IC50 for chloroquine-resistant Plasmodium falciparum W2. Type of data set: toxicity, cell-based. The settings on record: read-out: Ratio IC50.
Data set [3] can be described thus: Selectivity index, ratio of IC50 for african green monkey (Cercopithecus aethiops) Vero cells to IC50 for chloroquine-sensitive Plasmodium falciparum F32. Type of data set: toxicity, cell-based. As to conditions: read-out: Ratio IC50.
The test system of data set [4] is Plasmodium falciparum. Nature of the data set: Antiplasmodial activity against chloroquine-resistant Plasmodium falciparum W2 after 48 hrs by [3H]hypoxanthine uptake. The class given is functional, organism-based.
The test system of data set [5] is Plasmodium falciparum. Nature of the data set: Antiplasmodial activity against chloroquine-sensitive Plasmodium falciparum F32 after 48 hrs by [3H]hypoxanthine uptake. Type of data set: functional, organism-based.
Data set [6] is described as follows: Selectivity index, ratio of IC50 for african green monkey (Cercopithecus aethiops) Vero cells to IC50 for chloroquine-resistant Plasmodium falciparum FcM29. The class given is toxicity, cell-based. As to conditions: read-out: Ratio IC50.
A short description of data set [7]: Selectivity index, ratio of IC50 for african green monkey (Cercopithecus aethiops) Vero cells to IC50 for chloroquine-resistant Plasmodium falciparum FcB1. The class given is toxicity, cell-based. As to conditions: read-out: Ratio IC50.
Data set [8] relates to Plasmodium falciparum. Briefly: Antiplasmodial activity against chloroquine-resistant Plasmodium falciparum FcB1 after 48 hrs by [3H]hypoxanthine uptake. Type of data set: functional, organism-based. The settings on record: FcB1/Columbia.
Data set [9] deals with Plasmodium falciparum. Nature of the data set: Antiplasmodial activity against chloroquine-resistant Plasmodium falciparum FcM29 after 48 hrs by [3H]hypoxanthine uptake. Type of data set: functional, organism-based.
The next data set deals with Vero. Nature of the data set: Cytotoxicity against african green monkey Vero cells assessed as [3H]hypoxanthine incorporation after 48 hrs. The class given is cell-based. As to conditions: Chlorocebus sabaeus.

`COc1cc2cccnc2c2nc(C)c3cc[nH]c3c12`: the half-inhibitory concentration (IC50) in the data set with Plasmodium falciparum [1] turned out to be 9.8 µM; in the data set on Plasmodium falciparum [4] it was 1280 nM; with Plasmodium falciparum [5], 410 nM; with Plasmodium falciparum [8] it was 220 nM; in the data set on Plasmodium falciparum [9], 1280 nM; in the data set on Vero, 29.8 µM. In addition, the selectivity ratio in data set [2] came out at 23; in [3], 72; in data set [6], 23; in [7] it was 132.
On to `Cc1nc2c(ccc3cccnc32)c2[nH]ccc12`, for which the IC50 in the data set with Plasmodium falciparum [1] was determined as 10.6 µM; in the data set with Plasmodium falciparum [4], 4170 nM; in the data set with Plasmodium falciparum [5] it was 1310 nM; in the data set on Plasmodium falciparum [8] it was 1140 nM; with Plasmodium falciparum [9], 9360 nM; in the data set with Vero, 61.6 µM. The selectivity ratio came out at 15 in data set [2], 47 in data set [3], 7 in [6] and 54 in [7].
As for `COc1cc(NC(C)CCCN)c2ncccc2c1` (stereo not given) [PRIMAQUINE], the half-maximal inhibitory concentration (IC50) in the data set on Vero worked out at 340 µM.
As for `Cc1nc2c(ccc3cccnc32)c2occc12`, the IC50 was 5.5 µM in the data set on Plasmodium falciparum [1]; 1100 nM in the data set on Plasmodium falciparum [4]; 1180 nM in the data set on Plasmodium falciparum [5]; 970 nM in the data set with Plasmodium falciparum [8]; 380 nM in the data set on Plasmodium falciparum [9]; 37.6 µM in the data set on Vero. In addition, the selectivity ratio in [2] was found to be 34; in data set [3], 32; in [6], 99; in data set [7] it was 39.
Turning to `COc1cc2cccnc2c2nc(C)c3ccoc3c12`, the half-inhibitory concentration (IC50) in the data set on Plasmodium falciparum [1] is 3.75 µM; in the data set on Plasmodium falciparum [4] it was 930 nM; in the data set with Plasmodium falciparum [5], 860 nM; in the data set on Plasmodium falciparum [8], 930 nM; in the data set with Plasmodium falciparum [9], 480 nM; with Vero, 62.2 µM. Further, the selectivity ratio in data set [2] stood at 66; in data set [3] it was 72; in data set [6], 129; in data set [7], 39.
With `COc1cc2cccnc2c2nc(C)c(CCCl)c(Cl)c12`, the concentration for half-maximal inhibition (IC50) with Plasmodium falciparum [4] was 6560 nM; in the data set on Plasmodium falciparum [5], 7710 nM; in the data set on Plasmodium falciparum [8], 4840 nM; in the data set with Plasmodium falciparum [9], 5000 nM.
